Laboratory results from publication PMC5307958 (Scientific Reports, 2017).
“Also recorded” adds a separate entry of the source. Where a SMILES comes first, the peptide text is derived from it. Bridges are numbered along the chain shown (N, C = ends).

Key:
[1] = tested on: wild-type worms (N2 Bristol; BK channel ortholog SLO-1); assay: C. elegans crawl speed, wild-type; assay type: in vivo, Caenorhabditis elegans; conditions: for crawl speed relative to controls: 30 min pre-incubation in puddle, age-matched day one adults, tracked 1 min, p < 0.001; for effect on crawl speed: wild type, 30 min, p<0.001, N=81-210, planned Student's t-tests
Description: (§1) Worms were cultivated at 20 °C as described with OP50 bacteria. Worms cultured on plates contaminated with fungi or other bacteria were excluded from this study. The reference wild-type strain was N2 Bristol. The reference slo-1(null) strain and background for transgenic strains was NM1968, harboring the previously characterized null allele, js379[29]. Multi-site gateway technology (Invitrogen) was used to construct plasmids. […] of the native slo-1 promoter (Pslo-1) and the traditional unc-54 UTR were used in combination with slo-1a(cDNA)::mCherry for a rescue construct. To test rescue with the human BK channel, an hslo(ZERO isoform, cDNA)::mCherry version was constructed. The slo-1(+) and hslo(+) plasmids were injected at a concentration of 20 and 10 ng/μl, respectively. The co-injection reporter PCFJ90 (1.25 ng/μl) was used to ensure proper transformation of the arrays. As such, JPS345 carried vxEx345, an extrachromosomal array containing [Pslo-1::slo-1::mCherry::unc-54UTR,Pmyo-2::mCherry::unc-54UTR]. JPS340 carried […], an extrachromosomal array containing [Pslo-1::hslo::mCherry::unc-54UTR,Pmyo-2::mCherry::unc-54UTR].
Age-matched day one adults were cleaned of bacteria by letting them crawl around on an unseeded plate and then moved into a puddle of NGM or peptide dissolved in NGM on another unseeded plate. NGM and peptide treatment groups were always run in tandem to control for behavioral variance. While much shorter than typical drug applications in C. elegans, brief application in liquid was chosen to avoid potential catabolic by-products of incubation on metabolically active E. coli. Higher LS3 concentrations were used to compensate. The puddle was refreshed 1–2 times as needed, but let to fully absorb into the agar by 30 minutes. After 30 minutes, crawl behavior was videoed (Flea2 camera, Point Grey Research, Canada; StreamPix 3, NorPix, Canada). Copper rings restricted movement to a proscribed area. The worms were tracked offline using custom macros (Image-Pro, MediaCybernetics, Rockville, MD) for 1 minute to obtain crawl speed (cm/min). Group means ± SEM for peptide-treated vs. vehicle-treated controls were compared at each concentration with Student’s t-tests. Rescue analysis was completed with two-way ANOVA (SigmaPlot, San Jose, CA). Crawl speeds for the peptide treated groups were also normalized to the performance of yoked controls. Normalized group means±SEM were compared vs. slo-1 null performance by two-way ANOVA.

[2] = tested on: hslo(+) human BK channel gene (ZERO isoform) expressed in slo-1(null) worms; assay: C. elegans crawl speed, hslo(+) rescue on slo-1 null background; assay type: in vivo, Caenorhabditis elegans; conditions: 750 μM LS3, 30 min; transgenic hslo(+) on slo-1(null) background; vs. slo-1(null): p < 0.001, N = 78–162
Description: as §1
Age-matched day one adults were cleaned of bacteria by letting them crawl around on an unseeded plate and then moved into a puddle of NGM or peptide dissolved in NGM on another unseeded plate. […]

[3] = biological target: T1, human BKα channel (ZERO isoform) expressed in HEK293 cells (Homo sapiens, UniProt Q12791); assay: Patch-clamp recording, inside-out patches, extracellular application; assay type: cell-based
T1 construct: expressed in transfected cells; host or cells: HEK293 (ATCC), transient transfection with Lipofectamine 2000; EGFP cotransfected as a separate marker
Description: HEK293 cells (ATCC, Manassas, VA) were grown according to standard procedures. Cells were cultured at 37 °C in a 5% CO2 atmosphere in Dulbecco’s modified Eagle’s medium with L-glutamine, sodium pyruvate and 10% fetal bovine serum (Invitrogen). Cell lines were split with trypsin/EDTA in Hanks’ balanced salt solution (Invitrogen) up to 25–30 cycles. For phage display, stable lines stably expressed rSK2 or hBKα ZERO isoform. Cells were transfected (Lipofectamine 2000, Invitrogen) with hGlyRα1 and used 48 hours later. For electrophysiological recordings, cells were transfected with hBKα ZERO isoform. Enhanced green fluorescent protein (EGFP) was cotransfected as a marker. Electrophysiological recordings were made 16–72 h after transfection. Although the profile of BK channel composition varies from tissue to tissue, the ZERO BK channel splice variant is widely expressed, particularly in the nervous system, serving as a representative form for studying the modulation of BK channel gating.
Voltage-clamp recordings were performed at room temperature (22–24 °C) using an inside-out configuration on patches pulled from HEK293 cells. The extracellular solution contained the following (in mM): 2 KCl, 136 KOH, 20 HEPES, 2 MgCl2, adjusted to pH 7.2 with MeSO3H. In order to apply peptide to the extracellular surface, patch electrodes (7–20 MΩ in resistance) were tip-filled with normal extracellular solution and backfilled with extracellular solution containing LS3. Enough normal extracellular solution was included to provide at least five minutes of peptide-free recording (determined by plotting Po vs. time). The intracellular solution (in the bath) contained the following (in mM): 6 KCl, 132 KOH, 20 HEPES, adjusted to pH 7.2 with MeSO3H. To achieve 750 nM free Ca^2+, […] and 5 mM EGTA were included, a ratio verified by measurement with a Ca^2+-sensitive electrode. Voltage-clamp recordings made with an Axopatch 200 A amplifier and custom macros in IgorPro. Analysis was performed with QUB (http://www.qub.buffalo.edu), including Po, mean open time and three component exponential fits to closed dwell times. Group means±SEM for post-peptide measures were plotted relative to pre-peptide values and compared with pre values via planned paired t-tests.

Adrenergic Alpha1A = assay: Competition radioligand binding (NIMH PDSP); conditions: radioligand Prazosin, measured 4 times
Description: (§2) LS3 was screened against a comprehensive panel of CNS-based proteins. Detailed protocols can be found within the US National Institute of Mental Health Psychoactive Drug Screening Program (NIMH PDSP) Assay Protocol Book (version II), by B. L. Roth, March 2013 (available at: http://pdsp.med.unc.edu/PDSP%20Protocols%20II%202013-03-28.pdf). […] Radioactivity in the presence of the LS3 (sample) was calculated with the following equation and expressed as a percent inhibition: % inhibition = (sample CPM – non-specific CPM)/Total CPM – non-specific CPM) × 100. Total binding was measured with no competing ligand. Non-specific binding was measured in the presence of reference compound. The % inhibition by LS3 was measured 4 times for each receptor.

Opioid DOR = assay: Competition radioligand binding (NIMH PDSP); conditions: radioligand DADLE, measured 4 times
Description: as §2

T1 sequence (Q12791 1-1178 isoform Q12791-5): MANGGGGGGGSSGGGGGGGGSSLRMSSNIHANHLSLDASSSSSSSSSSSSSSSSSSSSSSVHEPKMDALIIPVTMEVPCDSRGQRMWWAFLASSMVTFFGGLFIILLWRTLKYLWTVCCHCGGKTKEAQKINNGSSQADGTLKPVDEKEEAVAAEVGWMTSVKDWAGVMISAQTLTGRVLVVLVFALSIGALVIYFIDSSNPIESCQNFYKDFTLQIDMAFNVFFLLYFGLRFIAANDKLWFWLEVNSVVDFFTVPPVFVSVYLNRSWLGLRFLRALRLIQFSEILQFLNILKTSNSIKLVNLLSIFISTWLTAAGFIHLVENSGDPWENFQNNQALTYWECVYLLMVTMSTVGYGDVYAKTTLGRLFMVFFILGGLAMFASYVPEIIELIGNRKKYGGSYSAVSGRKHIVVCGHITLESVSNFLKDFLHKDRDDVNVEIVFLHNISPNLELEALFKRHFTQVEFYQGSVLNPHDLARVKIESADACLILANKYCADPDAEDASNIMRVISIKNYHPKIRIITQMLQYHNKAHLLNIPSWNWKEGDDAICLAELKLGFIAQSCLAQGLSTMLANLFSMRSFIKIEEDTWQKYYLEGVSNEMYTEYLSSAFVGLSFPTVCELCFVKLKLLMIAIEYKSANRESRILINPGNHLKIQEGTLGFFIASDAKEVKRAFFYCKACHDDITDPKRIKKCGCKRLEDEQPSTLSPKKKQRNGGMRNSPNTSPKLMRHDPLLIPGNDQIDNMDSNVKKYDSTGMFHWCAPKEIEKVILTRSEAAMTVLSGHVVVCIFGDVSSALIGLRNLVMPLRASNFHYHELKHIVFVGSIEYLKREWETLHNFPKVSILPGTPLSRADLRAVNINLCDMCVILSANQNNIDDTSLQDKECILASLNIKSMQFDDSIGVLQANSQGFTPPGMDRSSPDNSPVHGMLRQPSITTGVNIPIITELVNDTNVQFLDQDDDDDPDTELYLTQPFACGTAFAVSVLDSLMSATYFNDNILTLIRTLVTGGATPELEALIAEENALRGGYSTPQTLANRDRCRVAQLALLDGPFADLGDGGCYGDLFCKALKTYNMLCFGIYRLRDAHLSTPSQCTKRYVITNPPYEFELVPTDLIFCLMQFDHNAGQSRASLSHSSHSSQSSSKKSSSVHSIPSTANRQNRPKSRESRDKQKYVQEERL

SMILES: CC(C)C[C@@H]1NC(=O)CNC(=O)[C@H](CCCNC(=N)N)NC(=O)[C@H](CCCNC(=N)N)NC(=O)[C@@H](N)CSSC[C@@H](C(=O)O)NC(=O)[C@H](C(C)C)NC(=O)[C@H](CCC(N)=O)NC(=O)[C@H](C(C)C)NC1=O [LS3] (H-CRRGLVQVC-OH; disulfide 1-9; N-terminus and C-terminus assumed)
- crawl speed relative to controls ([1]; 250 μM LS3 in NGM): ~ 85%
- crawl speed relative to controls ([1]; 750 μM LS3 in NGM): ~ 70%
- effect on crawl speed ([1]; 75 µM LS3 vs. vehicle): reduced
- effect on crawl speed ([1]; 250 µM LS3 vs. vehicle): reduced
- effect on crawl speed ([1]; 750 µM LS3 vs. vehicle): reduced
- effect on crawl speed / locomotion ([1]; wild-type, LS3 in NGM, 30 min bath, WT vs. slo-1(null) at 250 and 750 μM: p < 0.05 and p < 0.001, N = 139–372): reduced crawl speed; also recorded: slowed locomotion in a concentration-dependent manner
- LS3-induced slowing response (reduction in crawl speed) [2]: rescued the LS3-induced slowing response
- effect on Po (post vs. pre peptide) ([3]; 50 pM LS3, extracellular, any voltage (60–100 mV), 750 nM Ca): did not significantly alter the Po
- effect on Po (post vs. pre peptide) ([3]; 500 pM to 500 nM LS3, extracellular, each holding potential 60–100 mV, 750 nM Ca, N = 6–12): reduced the Po at each holding potential
- effect on Po (post vs. pre peptide) ([3]; 50 nM LS3 applied to extracellular (external) side, each voltage, p < 0.05, N = 6): reduction in Po at each voltage; also recorded: significantly reduce Po at all voltages
- short closed dwell times ([3]; 500 nM LS3, 750 nM Ca, three-component exponential fits, component 0, N = 8): remained unchanged; also recorded: did not change significantly
- long closed dwell times ([3]; 500 nM LS3, 750 nM Ca, three-component exponential fits, component 2, p < 0.05, N = 8): increased; also recorded: lengthened
- post Po relative to pre ([3]; 500 nM LS3, 40 mV, p < 0.05): 0.54 ± 0.17
- single channel conductance post LS3 ([3]; 500 nM LS3, 60 mV, pre peptide 282 ± 4.62 pS (remained stable)): 287 ± 5.12 pS
- mean open times ([3]; 500 nM LS3, all holding potentials 60–100 mV, 750 nM Ca, p < 0.05, N = 8): decreasing mean open times at all holding potentials; also recorded: shortened openings
- reduction of probability of channel opening (Po) ([3]; 60 mV, high picomolar to nanomolar LS3, extracellular, intracellular calcium 750 nM): ~ 60%
- apparent affinity compared with known blockers ([3]; LS3 vs. known high affinity BK channel toxins / Kv peptide toxins or paxilline): higher than known high affinity BK channel toxins; also recorded: higher apparent affinity than Kv peptide toxins or paxilline
- mode of action on channel ([3]; from change in mean open and closed times, rather than blocking the pore): modulates channel gating
- IC50 for reduction of BK channel open probability (Po) ([3]; inside-out patches, peptide applied to extracellular side, intracellular calcium 750 nM, 22–24 °C, approximate, in words): mid-picomolar range
- % inhibition by 10 µM LS3 (Adrenergic Alpha1A): 11.3%
- % inhibition by 10 µM LS3 (Opioid DOR): 1.9%
